Tests used:
HL-60(TB) = details: single dose 10 μM; leukemia
[1] = tested on: NCI 60 cancer cell line panel; assay: NCI 60 full panel summary; details: single dose 10 μM; mean over the NCI 60 panel
CCRF-CEM = details: single dose 10 μM; leukemia
K-562 = details: single dose 10 μM; leukemia
MOLT-4 = details: single dose 10 μM; leukemia
RPMI-8226 = details: single dose 10 μM; leukemia
SR = details: single dose 10 μM; leukemia
EKVX = details: single dose 10 μM; non-small lung carcinoma
HOP-62 = details: single dose 10 μM; non-small lung carcinoma
HOP-92 = details: single dose 10 μM; non-small lung carcinoma
NCI-H226 = details: single dose 10 μM; non-small lung carcinoma
NCI-H522 = details: single dose 10 μM; non-small lung carcinoma
HCT-15 = details: single dose 10 μM; colon cancer
HT29 = details: single dose 10 μM; colon cancer
SF-295 = details: single dose 10 μM; CNS cancer
SF-539 = details: single dose 10 μM; CNS cancer
SNB-19 = details: single dose 10 μM; CNS cancer
SNB-75 = details: single dose 10 μM; CNS cancer
U251 = details: single dose 10 μM; CNS cancer
LOX IMVI = details: single dose 10 μM; melanoma
MALME-3M = details: single dose 10 μM; melanoma
SK-MEL-5 = details: single dose 10 μM; melanoma
UACC-62 = details: single dose 10 μM; melanoma
OVCAR-5 = details: single dose 10 μM; ovarian carcinoma
SK-OV-3 = details: single dose 10 μM; ovarian carcinoma
786–0 = details: single dose 10 μM; renal carcinoma
CAKI-1 = details: single dose 10 μM; renal carcinoma
TK-10 = details: single dose 10 μM; renal carcinoma
UO-31 = details: single dose 10 μM; renal carcinoma
PC-3 = details: single dose 10 μM; prostate carcinoma
MCF7 = details: single dose 10 μM; breast carcinoma
BT-549 = details: single dose 10 μM; breast carcinoma
T-47D = details: single dose 10 μM; breast carcinoma
MDA-MB-468 = details: single dose 10 μM; breast carcinoma
A549/ATCC = details: single dose 10 μM; non-small lung carcinoma
HCC-2998 = details: single dose 10 μM; colon cancer
HCT-116 = details: single dose 10 μM; colon cancer
KM12 = details: single dose 10 μM; colon cancer
SW-620 = details: single dose 10 μM; colon cancer
M14 = details: single dose 10 μM; melanoma
MDA-MB-435 = details: single dose 10 μM; melanoma
SK-MEL-2 = details: single dose 10 μM; melanoma
SK-MEL-28 = details: single dose 10 μM; melanoma
UACC-257 = details: single dose 10 μM; melanoma
A498 = details: single dose 10 μM; renal carcinoma
SN12C = details: single dose 10 μM; renal carcinoma
ACHN = details: single dose 10 μM; renal carcinoma

In the case of CC(=O)N1N=C(c2ccccc2)CC1c1cn(-c2ccccc2)nc1-c1cc2ccccc2o1 (centres unmarked) [4a, 1-(5-(3-(Benzofuran-2-yl)-1-phenyl-1H-pyrazol-4-yl)-3-phenyl-4,5-dihydropyrazol-1-yl)ethanone], the GI% (HL-60(TB)) is reported as 2.27%, the “Mean GI%” value [1] is reported as 1.66% and the GI% (CCRF-CEM) is reported as 15.54%. For the same compound, the GI% (K-562) was 6.90%, the GI% (MOLT-4) was 7.01% and the GI% (RPMI-8226) was 6.01%. For the same compound, the GI% (SR) was 17.00%, the GI% (EKVX) was 6.06% and the GI% (HOP-62) was 1.18%. For the same compound, the GI% (HOP-92) was 16.24%, the GI% (NCI-H226) was 0.69% and the GI% (NCI-H522) was 2.75%. It also gave a GI% (HCT-15) of 2.61%, a GI% (HT29) of 0.65% and a GI% (SF-295) of 5.69%. The GI% (SF-539) was 8.41%, the GI% (SNB-19) was 5.00% and the GI% (SNB-75) was 1.45%. For the same compound, the GI% (U251) was 1.60%, the GI% (LOX IMVI) was 4.25% and the GI% (MALME-3M) was 1.02%. The GI% (SK-MEL-5) was 0.15%, the GI% (UACC-62) was 8.33% and the GI% (OVCAR-5) was 3.55%. It also gave a GI% (SK-OV-3) of 9.60%, a GI% (786–0) of 2.59% and a GI% (CAKI-1) of 13.36%. It also gave a GI% (TK-10) of 11.62%, a GI% (UO-31) of 15.50% and a GI% (PC-3) of 8.29%. The GI% (MCF7) was 11.19%, the GI% (BT-549) was 9.06% and the GI% (T-47D) was 12.41%. For the same compound, the GI% (MDA-MB-468) was 3.32%.
In the case of c1ccc(C2=NNC(c3cn(-c4ccccc4)nc3-c3cc4ccccc4o3)C2)cc1 (centres unmarked) [3a, 3-(Benzofuran-2-yl)-4-(3-phenyl-4,5-dihydro-1H-pyrazol-5-yl)-1-phenyl-1H-pyrazole], the GI% (HL-60(TB)) is reported as 0.73%, the “Mean GI%” value [1] is reported as 2.24% and the GI% (CCRF-CEM) is reported as 12.98%. For the same compound, the GI% (K-562) was 6.49%, the GI% (MOLT-4) was 0.33% and the GI% (RPMI-8226) was 2.58%. For the same compound, the GI% (SR) was 15.96%, the GI% (A549/ATCC) was 3.63% and the GI% (EKVX) was 6.43%. For the same compound, the GI% (HOP-62) was 2.07%, the GI% (HOP-92) was 22.19% and the GI% (NCI-H226) was 8.13%. For the same compound, the GI% (NCI-H522) was 3.69%, the GI% (HCC-2998) was 66.78% and the GI% (HCT-116) was 99.83%. For the same compound, the GI% (HCT-15) was 75.31%, the GI% (HT29) was 54.87% and the GI% (KM12) was 62.60%. For the same compound, the GI% (SW-620) was 79.60%, the GI% (SF-295) was 9.51% and the GI% (SF-539) was 6.00%. For the same compound, the GI% (SNB-19) was 5.98%, the GI% (SNB-75) was −10.52% and the GI% (U251) was 2.33%. The GI% (MALME-3M) was 3.67%, the GI% (M14) was 0.57% and the GI% (MDA-MB-435) was −6.37%. For the same compound, the GI% (SK-MEL-2) was −6.14%, the GI% (SK-MEL-28) was 2.00% and the GI% (SK-MEL-5) was 0.18%. For the same compound, the GI% (UACC-257) was 6.06%, the GI% (UACC-62) was 7.34% and the GI% (OVCAR-5) was 3.74%. It also gave a GI% (SK-OV-3) of 8.93%, a GI% (A498) of 6.22% and a GI% (CAKI-1) of 11.52%. For the same compound, the GI% (SN12C) was 12.27%, the GI% (TK-10) was 10.65% and the GI% (UO-31) was 14.55%. The GI% (PC-3) was 8.08%, the GI% (MCF7) was 7.06% and the GI% (BT-549) was 0.80%. For the same compound, the GI% (T-47D) was 10.71%.
With COc1ccc(C2=NN(C(C)=O)C(c3cn(-c4ccccc4)nc3-c3cc4ccccc4o3)C2)cc1 (centres unmarked) [4b, 1-(5-(3-(Benzofuran-2-yl)-1-phenyl-1H-pyrazol-4-yl)-3-(4-methoxyphenyl)-4,5-dihydropyrazol-1-yl)ethanone] the GI% (HL-60(TB)) was 0.51%, the “Mean GI%” value [1] was −2.13% and the GI% (CCRF-CEM) was 10.80%. For the same compound, the GI% (K-562) was 5.81%, the GI% (MOLT-4) was 7.68% and the GI% (RPMI-8226) was 4.36%. The GI% (SR) was 12.12%, the GI% (HOP-62) was 2.33% and the GI% (HOP-92) was 8.59%. The GI% (NCI-H522) was 1.65%, the GI% (HCT-15) was 0.50% and the GI% (SF-539) was 2.46%. For the same compound, the GI% (SNB-19) was 2.45%, the GI% (LOX IMVI) was 2.30% and the GI% (MALME-3M) was 0.92%. It also gave a GI% (UACC-62) of 5.56%, a GI% (SK-OV-3) of 4.82% and a GI% (CAKI-1) of 13.20%. The GI% (TK-10) was 7.73%, the GI% (UO-31) was 17.79% and the GI% (PC-3) was 6.35%. It also gave a GI% (MCF7) of 9.85%, a GI% (T-47D) of 2.42% and a GI% (MDA-MB-468) of 2.43%.
With “1-(1H-Benzo[d]imidazol-2-yl)-3-(5-(benzofuran-2-yl)-1-phenyl-1H-pyrazol-3-yl)prop-2-en-1-one [2d]” the GI% (HL-60(TB)) was 8.55%, the “Mean GI%” value [1] was −0.94% and the GI% (K-562) was 4.77%. The GI% (MOLT-4) was 3.61%, the GI% (RPMI-8226) was 0.67% and the GI% (SR) was 14.03%. It also gave a GI% (EKVX) of 2.15%, a GI% (HOP-62) of 0.08% and a GI% (NCI-H522) of 0.40%. It also gave a GI% (SF-295) of 4.39%, a GI% (SF-539) of 1.65% and a GI% (SNB-19) of 4.33%. It also gave a GI% (SNB-75) of 20.70%, a GI% (MALME-3M) of 0.07% and a GI% (UACC-257) of 1.66%. It also gave a GI% (SK-OV-3) of 4.37%, a GI% (786–0) of 0.74% and a GI% (CAKI-1) of 10.24%. The GI% (SN12C) was 3.48%, the GI% (TK-10) was 3.41% and the GI% (UO-31) was 7.86%. For the same compound, the GI% (MCF7) was 5.90%, the GI% (BT-549) was 15.03% and the GI% (T-47D) was 7.67%. It also gave a GI% (MDA-MB-468) of 1.87%.
In the case of “3-(5-(Benzofuran-2-yl)-1-phenyl-1H-pyrazol-3-yl)-1-(4-methoxyphenyl)prop-2-en-1-one [2b]”, the GI% (HL-60(TB)) is reported as 10.93%, the “Mean GI%” value [1] is reported as 0.61% and the GI% (CCRF-CEM) is reported as 19.37%. The GI% (K-562) was 8.35%, the GI% (MOLT-4) was 7.84% and the GI% (RPMI-8226) was 10.27%. The GI% (SR) was 16.61%, the GI% (EKVX) was 5.88% and the GI% (HOP-62) was 2.25%. It also gave a GI% (HOP-92) of 18.73%, a GI% (NCI-H226) of 0.47% and a GI% (NCI-H522) of 0.40%. For the same compound, the GI% (SF-295) was 7.09%, the GI% (SF-539) was 3.20% and the GI% (SNB-19) was 6.26%. The GI% (LOX IMVI) was 4.44%, the GI% (MALME-3M) was 1.29% and the GI% (UACC-62) was 7.77%. It also gave a GI% (OVCAR-5) of 2.97%, a GI% (SK-OV-3) of 4.75% and a GI% (786–0) of 1.04%. For the same compound, the GI% (ACHN) was 0.20%, the GI% (CAKI-1) was 12.51% and the GI% (TK-10) was 6.22%. The GI% (UO-31) was 14.83%, the GI% (PC-3) was 4.83% and the GI% (MCF7) was 0.75%. The GI% (T-47D) was 83.54% and the GI% (MDA-MB-468) was 65.44%.
